Legend:
Format in all cases: functional
MKN-7 = test: Growth inhibition of human MKN7 cells
PC-3 = test: Growth inhibition of human PC3 cells
HCT-15 = test: Growth inhibition of human HCT15 cells
A549 = test: Growth inhibition of human A549 cells
SF-268 = test: Growth inhibition of human SF268 cells
SNB-78 = test: Growth inhibition of human SNB78 cells
HCT-116 = test: Growth inhibition of human HCT116 cells
St-4 = test: Growth inhibition of human St-4 cells
MDA-MB-231 = test: Growth inhibition of human MDA-MB-231 cells
[1] = Growth inhibition of human MKN1 cells
MCF7 = test: Growth inhibition of human MCF7 cells
DMS-114 = test: Growth inhibition of human DMS114 cells
HCC 2998 = test: Growth inhibition of human HCC2998 cells
ACHN = test: Growth inhibition of human ACHN cells
DMS-273 = test: Growth inhibition of human DMS273 cells
NCI-H522 = test: Growth inhibition of human NCI-H522 cells
OVCAR-4 = test: Growth inhibition of human OVCAR4 cells
OVCAR-3 = test: Growth inhibition of human OVCAR-3 cells
[2] = Growth inhibition of human HBC4 cells
LOX IMVI = test: Growth inhibition of human LOXIMVI cells
OVCAR-8 = test: Growth inhibition of human OVCAR8 cells
U-251 = test: Growth inhibition of human U251 cells
SK-OV-3 = test: Growth inhibition of human SKOV3 cells
[3] = Growth inhibition of human HBC5 cells
SF-295 = test: Growth inhibition of human SF295 cells
OVCAR-5 = test: Growth inhibition of human OVCAR5 cells
SNB-75 = test: Growth inhibition of human SNB75 cells
[4] = Growth inhibition of human BSY1 cells
[5] = read-out: LC50 (the source's name)
[6] = read-out: pLC50 (the source's name) (converted)

## CC(=O)O[C@H]1C[C@H]2OC[C@@]2(OC(C)=O)[C@H]2[C@H](OC(=O)c3ccccc3)[C@]3(O)C[C@H](O)C(C)=C([C@@H](O)[C@H](O)[C@]12C)C3(C)C [TAXUSPINE E]
MKN-7
  TGI: 93 µM
MKN-7; read-out: GI50
  GI50: 18 µM
MKN-7; [5]
  CC50: > 100 µM
MKN-7; read-out: pGI50 (converted)
  GI50: 18.2 µM
PC-3; read-out: GI50
  GI50: 20 µM
PC-3; [5]
  CC50: > 100 µM
PC-3; read-out: TGI
  TGI: > 100 µM
PC-3; read-out: pGI50 (converted)
  GI50: 20 µM
PC-3; read-out: pTGI (converted)
  TGI: 100 µM
HCT-15; read-out: GI50
  GI50: 32 µM
HCT-15; [5]
  CC50: > 100 µM
HCT-15; read-out: TGI
  TGI: > 100 µM
HCT-15; read-out: pGI50 (converted)
  GI50: 32.4 µM
HCT-15; [6]
  CC50: 100 µM
HCT-15; read-out: pTGI (converted)
  TGI: 100 µM
A549; read-out: GI50
  GI50: 30 µM
A549; [5]
  CC50: 100 µM
A549; read-out: TGI
  TGI: > 100 µM
A549; read-out: pGI50 (converted)
  GI50: 30.2 µM
A549; [6]
  CC50: 100 µM
A549; read-out: pTGI (converted)
  TGI: 100 µM
SF-268
  TGI: > 100 µM
SF-268; read-out: GI50
  GI50: 74 µM
SF-268; [5]
  CC50: > 100 µM
SF-268; read-out: pGI50 (converted)
  GI50: 74.1 µM
SF-268; [6]
  CC50: 100 µM
SNB-78; read-out: GI50
  GI50: 50 µM
SNB-78; [5]
  CC50: > 100 µM
SNB-78; read-out: TGI
  TGI: > 100 µM
SNB-78; read-out: pGI50 (converted)
  GI50: 50.1 µM
SNB-78; [6]
  CC50: 100 µM
SNB-78; read-out: pTGI (converted)
  TGI: 100 µM
HCT-116
  TGI: > 100 µM
HCT-116; read-out: GI50
  GI50: 30 µM
HCT-116; [5]
  CC50: > 100 µM
HCT-116; read-out: pGI50 (converted)
  GI50: 30.2 µM
HCT-116; [6]
  CC50: 100 µM
St-4; read-out: GI50
  GI50: 33 µM
St-4; [5]
  CC50: > 100 µM
St-4; read-out: TGI
  TGI: > 100 µM
St-4; read-out: pGI50 (converted)
  GI50: 33.1 µM
St-4; [6]
  CC50: 100 µM
St-4; read-out: pTGI (converted)
  TGI: 100 µM
MDA-MB-231; read-out: GI50
  GI50: 18 µM
MDA-MB-231; [5]
  CC50: > 100 µM
MDA-MB-231; read-out: pGI50 (converted)
  GI50: 18.2 µM
MDA-MB-231; [6]
  CC50: 100 µM
MDA-MB-231; read-out: pTGI (converted)
  TGI: 100 µM
[1]; MKN-1, read-out: GI50
  GI50: 49 µM
[1]; MKN-1, read-out: LC50 (the source's name)
  CC50: > 100 µM
[1]; MKN-1, read-out: TGI
  TGI: > 100 µM
[1]; MKN-1, read-out: pGI50 (converted)
  GI50: 49 µM
[1]; MKN-1, read-out: pLC50 (the source's name) (converted)
  CC50: 100 µM
[1]; MKN-1, read-out: pTGI (converted)
  TGI: 100 µM
MCF7; read-out: GI50
  GI50: 24 µM
MCF7; [5]
  CC50: > 100 µM
MCF7; read-out: TGI
  TGI: 93 µM
MCF7; read-out: pGI50 (converted)
  GI50: 24 µM
MCF7; [6]
  CC50: 100 µM
MCF7; read-out: pTGI (converted)
  TGI: 93.3 µM
DMS-114; read-out: GI50
  GI50: 10 µM
DMS-114; [5]
  CC50: > 100 µM
DMS-114; read-out: TGI
  TGI: 57 µM
DMS-114; read-out: pGI50 (converted)
  GI50: 10 µM
DMS-114; read-out: pTGI (converted)
  TGI: 57.5 µM
HCC 2998
  TGI: > 100 µM
HCC 2998; read-out: GI50
  GI50: 27 µM
HCC 2998; [5]
  CC50: > 100 µM
HCC 2998; read-out: pGI50 (converted)
  GI50: 27.5 µM
ACHN; read-out: GI50
  GI50: 28 µM
ACHN; [5]
  CC50: > 100 µM
ACHN; read-out: TGI
  TGI: > 100 µM
ACHN; read-out: pGI50 (converted)
  GI50: 28.2 µM
ACHN; read-out: pTGI (converted)
  TGI: 100 µM
DMS-273; read-out: GI50
  GI50: 22 µM
DMS-273; [5]
  CC50: > 100 µM
DMS-273; read-out: TGI
  TGI: > 100 µM
DMS-273; read-out: pGI50 (converted)
  GI50: 22.4 µM
DMS-273; read-out: pTGI (converted)
  TGI: 100 µM
NCI-H522; read-out: GI50
  GI50: 15 µM
NCI-H522; [5]
  CC50: > 100 µM
NCI-H522; read-out: TGI
  TGI: 49 µM
NCI-H522; read-out: pGI50 (converted)
  GI50: 15.1 µM
NCI-H522; read-out: pTGI (converted)
  TGI: 49 µM
OVCAR-4; read-out: GI50
  GI50: 21 µM
OVCAR-4; [5]
  CC50: > 100 µM
OVCAR-4; read-out: TGI
  TGI: > 100 µM
OVCAR-4; read-out: pGI50 (converted)
  GI50: 21.4 µM
OVCAR-4; [6]
  CC50: 100 µM
OVCAR-4; read-out: pTGI (converted)
  TGI: 100 µM
OVCAR-3; read-out: GI50
  GI50: 21 µM
OVCAR-3; [5]
  CC50: > 100 µM
OVCAR-3; read-out: TGI
  TGI: 99 µM
OVCAR-3; read-out: pGI50 (converted)
  GI50: 20.4 µM
OVCAR-3; [6]
  CC50: 100 µM
OVCAR-3; read-out: pTGI (converted)
  TGI: 100 µM
[2]; read-out: GI50
  GI50: 72 µM
[2]; [5]
  CC50: > 100 µM
[2]; read-out: TGI
  TGI: > 100 µM
[2]; read-out: pGI50 (converted)
  GI50: 72.4 µM
[2]; read-out: pTGI (converted)
  TGI: 100 µM
LOX IMVI; read-out: GI50
  GI50: 35 µM
LOX IMVI; [5]
  CC50: > 100 µM
LOX IMVI; read-out: TGI
  TGI: > 100 µM
LOX IMVI; read-out: pGI50 (converted)
  GI50: 34.7 µM
LOX IMVI; read-out: pTGI (converted)
  TGI: 100 µM
OVCAR-8; read-out: GI50
  GI50: 37 µM
OVCAR-8; [5]
  CC50: > 100 µM
OVCAR-8; read-out: TGI
  TGI: 100 µM
OVCAR-8; read-out: pGI50 (converted)
  GI50: 37.2 µM
OVCAR-8; [6]
  CC50: 100 µM
OVCAR-8; read-out: pTGI (converted)
  TGI: 100 µM
U-251
  TGI: > 100 µM
U-251; read-out: GI50
  GI50: 36 µM
U-251; [5]
  CC50: > 100 µM
U-251; read-out: pGI50 (converted)
  GI50: 36.3 µM
SK-OV-3; read-out: GI50
  GI50: 68 µM
SK-OV-3; [5]
  CC50: > 100 µM
SK-OV-3; read-out: TGI
  TGI: 100 µM
SK-OV-3; read-out: pGI50 (converted)
  GI50: 69.2 µM
SK-OV-3; [6]
  CC50: 100 µM
SK-OV-3; read-out: pTGI (converted)
  TGI: 100 µM
[3]; read-out: GI50
  GI50: 25 µM
[3]; [5]
  CC50: > 100 µM
[3]; read-out: TGI
  TGI: > 100 µM
[3]; read-out: pGI50 (converted)
  GI50: 25.1 µM
[3]; read-out: pTGI (converted)
  TGI: 100 µM
SF-295; read-out: GI50
  GI50: 21 µM
SF-295; [5]
  CC50: > 100 µM
SF-295; read-out: TGI
  TGI: > 100 µM
SF-295; read-out: pGI50 (converted)
  GI50: 21.4 µM
SF-295; read-out: pTGI (converted)
  TGI: 100 µM
OVCAR-5; read-out: GI50
  GI50: 48 µM
OVCAR-5; [5]
  CC50: > 100 µM
OVCAR-5; read-out: TGI
  TGI: > 100 µM
OVCAR-5; read-out: pGI50 (converted)
  GI50: 47.9 µM
OVCAR-5; [6]
  CC50: 100 µM
OVCAR-5; read-out: pTGI (converted)
  TGI: 100 µM
SNB-75; read-out: GI50
  GI50: 9 µM
SNB-75; [5]
  CC50: 100 µM
SNB-75; read-out: TGI
  TGI: 55 µM
SNB-75; read-out: pGI50 (converted)
  GI50: 8.91 µM
SNB-75; [6]
  CC50: 100 µM
SNB-75; read-out: pTGI (converted)
  TGI: 55 µM
[4]; BSY-1, read-out: GI50
  GI50: 30 µM
[4]; BSY-1, read-out: LC50 (the source's name)
  CC50: > 100 µM
[4]; BSY-1, read-out: TGI
  TGI: > 100 µM
[4]; BSY-1, read-out: pGI50 (converted)
  GI50: 30.2 µM
[4]; BSY-1, read-out: pLC50 (the source's name) (converted)
  CC50: 100 µM
[4]; BSY-1, read-out: pTGI (converted)
  TGI: 100 µM

Reference: ChEMBL document CHEMBL1138436, “Biological activity and chemistry of taxoids from the Japanese yew, Taxus cuspidata” (J Nat Prod, 2004)
